According to US20070248599A1 (priority 2006, published 2007):

T1: ApoER2 (Mus musculus, UniProt Q924X6)
T1 construct: expressed in transfected cells; host or cells: HEK293 (inferred; the pull-down text names HEK293 lysates only for X11-transfected cells)
T1 sequence (Q924X6 29-996): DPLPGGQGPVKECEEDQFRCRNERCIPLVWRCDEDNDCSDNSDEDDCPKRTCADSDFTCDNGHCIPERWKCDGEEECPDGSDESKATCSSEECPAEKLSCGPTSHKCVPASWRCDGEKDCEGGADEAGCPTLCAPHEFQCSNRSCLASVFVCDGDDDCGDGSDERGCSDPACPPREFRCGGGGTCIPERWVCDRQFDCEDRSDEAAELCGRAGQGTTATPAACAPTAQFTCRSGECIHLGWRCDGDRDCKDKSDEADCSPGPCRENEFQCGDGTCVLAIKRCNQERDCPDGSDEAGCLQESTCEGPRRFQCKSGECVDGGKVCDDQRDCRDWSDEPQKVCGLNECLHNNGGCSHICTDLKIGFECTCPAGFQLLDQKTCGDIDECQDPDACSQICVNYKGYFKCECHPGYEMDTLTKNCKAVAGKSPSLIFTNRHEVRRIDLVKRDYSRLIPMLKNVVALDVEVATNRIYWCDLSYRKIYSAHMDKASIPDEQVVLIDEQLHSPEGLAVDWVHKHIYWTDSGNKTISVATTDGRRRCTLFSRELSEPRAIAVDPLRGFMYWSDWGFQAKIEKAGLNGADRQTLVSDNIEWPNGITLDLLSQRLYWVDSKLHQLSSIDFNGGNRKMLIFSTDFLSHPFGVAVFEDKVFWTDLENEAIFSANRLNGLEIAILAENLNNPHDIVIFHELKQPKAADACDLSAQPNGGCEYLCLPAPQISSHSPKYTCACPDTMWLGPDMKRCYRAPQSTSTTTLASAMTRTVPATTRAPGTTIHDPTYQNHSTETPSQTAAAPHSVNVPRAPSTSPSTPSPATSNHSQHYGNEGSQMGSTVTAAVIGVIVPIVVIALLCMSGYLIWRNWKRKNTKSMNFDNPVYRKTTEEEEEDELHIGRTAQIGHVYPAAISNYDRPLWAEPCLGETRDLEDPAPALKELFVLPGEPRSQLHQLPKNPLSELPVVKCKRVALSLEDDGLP

B1: PTB domain: PTB domain of X11α (residue 457-751), expressed from pcDNA6 as dominant-negative inhibitor or as GST fusion (protein)
chain: DGIIFAANYLGSTQLLSDKTPSKNVRMMQAQEAVSRIKMAQKLAKSRKKAPEGESQPMTEVDLFISTQRIKVLNADTQETMMDHPLRTISYIADIGNIVVLMARRRMPRSNSQENVEASHPSQDGKRQYKMICHVFESEDAQLIAQSIGQAFSVAYQEFLRANGINPEDLSQKEYSDLLNTQDMYNDDLIHFSKSENCKDVFIEKQKGEILGVVIVESGWGSILPTVIIANMMHGGPAEKSGKLNIGDQIMSINGTSLVGLPLSTCQSIIKGLKNQSRVKLNIVRCPPVTTVLIR
modifications: left off: a dimerising Fc or GST

How the values were obtained:
N2a-APPsw cells [1] = assay: Cellular Aβ production in N2a-APPsw cells (Aβ40 ELISA of conditioned medium); format: cell-based, mouse; settings: for Aβ40 increase in cells transfected with ApoER2 versus blank vectors / Aβ40 levels in medium: 5 μg/mL; for Aβ40 increase in cells transfected with ApoER2 versus blank vectors: N2a APPsw cells, p<0.05 (FIG. 4); for Aβ40 levels in medium: blank vector transfected N2a APPsw cells vs control (FIG. 4); for Aβ production: each at 5 μg/mL, 24 h, N2a-APPsw cells (FIG. 5B legend)
N2a-APPsw cells [2] = assay: as above; format: cell-based, mouse; settings: for Aβ production in cells transfected with ApoER2 versus without: N2a-APPsw cells (FIG. 5D)
Experimental: Quantification of β-Amyloid40, Neuro-2a cell stably overexpressing APPsw695 was used for detecting of β-Amyloid40. N2a-APPsw cells were grown in Dulbecco's Modified Eagle's medium (DMED) containing 10% fetal bovine serum, 100 U/mL penicillin, and 100 μg/mL streptomycin (GibcoBUR) with 80 μg/mL G418. Cells were cultured in 24-well plates one day before treatment. Transient transfections were done using FeGENE6 (Roche), fresh Optimum medium (Invitrogen) were supplied 5 h after transfection. Same concentration purified Apolipoprotein was added into the fresh medium. Conditioned medium was collected 24 h later. Aβ40 was quantified with sandwich ELISA by using Aβ40 ELISA Kit (Biosource). At least three times assays were done for each condition.
(§1) Cellular Aβ40 production. Neuroblastoma N2a-APPsw cells (from Dr. Riqiang Yan, Lerner Research Institute, Cleveland, Ohio) were cultured in 24-well plates in Dulbecco's Modified Eagle's medium (DMED) containing 10% fetal bovine serum, 100 U/mL penicillin, and 100 μg/mL streptomycin (GibcoBUR) with 80 μg/mL G418 one day before use. Transient transfections were done using FeGENE6 (Roche), fresh Optimum medium (Invitrogen) were supplied 5 h after transfection. Apolipoproteins were added in the fresh medium at 10 μg/mL. Conditioned medium was collected 24 h later. Aβ40 was determined in tripcates using Aβ40 ELISA Kit (Biosource). For studying the effect of PTB domain on Aβ production, N2a-APPsw cells were transfected with (0.4 μg/per well for 24 well plate) of PTB-containing vector before subjected to the above procedure.

[3] = test system: N2a-APPsw cells transfected with ApoER2 and β-secretase; assay: Internalization of cell surface proteins (biotinylation, Western blot); format: cell-based, mouse; settings: Western blot of conditioned medium (FIG. 6D)
[4] = molecular target: LDL (low-density lipoprotein) lipid receptor (Homo sapiens, UniProt P01130); settings: cited from earlier work
[5] = test system: N2a-APPsw cells transfected with ApoER2 and β-secretase; assay: Internalization of cell surface proteins (biotinylation, Western blot); format: cell-based, mouse; settings: for total amounts of ApoER2, APP and β-secretase in the cell lysates / decrease of remaining cell-surface β-secretase / increase of intracellular APP / increase of intracellular ApoER2 / increase of intracellular β-secretase: 10 μg/mL; for total amounts of ApoER2, APP and β-secretase in the cell lysates / decrease of remaining cell-surface β-secretase: 2 h; for decrease of remaining cell-surface β-secretase: compared to controls (FIG. 6A); for increase of intracellular APP / increase of intracellular ApoER2 / increase of intracellular β-secretase: internalization 15 min at 37° C. (FIG. 6B); for intracellular APP C-terminal fragment C99: Western blot, over the control (FIG. 6C)
Experimental: Internalization of cell surface proteins. N2a-APPsw cells were transiently tranfected with ApoER2 and β-secretase with Lipfectamine 2000. […] Cells were then placed on ice, rinsed in cold PBS and incubated in PBS containing 1.5 mg/mL sulfo-NHS-LC-biotin (Pierce) for 20 min at 4° C. Cells were rinsed twice in PBS and lysed in 800 μl PBS containing 0.1% SDS, 1% NP40 and a complete protease inhibitor cocktail. Total protein concentration was determined by immunoblotting from an aliquot of 50 μl cell lysate. Biotinylated proteins were recovered with NeutrAvidin agarose (50 μl; Pierce), rinsed three times, eluted in 20 μl SDS-sample buffer at boiling temperature and used for Western-blot. Quantity of bands was determined by optical scanning instruments specified above. For the determination of internalized proteins, cells were prepared as above, rinsed in PBS and then incubated with cold 1.5 mg/mL cleavable biotin reagent in PBS (EZ-Link Sulfo-NHS-SS biotin, Pierce) for 20 min at 4° C. […] Cells were then lysed in 800 μl PBS containing 0.1% SDS, 1% NP40 and a complete protease inhibitor cocktail. After centrifugation, biotinylated proteins were retrieved by incubation with NeutrAvidin agarose (50 μl; Pierce). Isolated proteins were rinsed in buffer three times and boiled in 20 μl sample buffer for Western blots.

endogenous X11α/β = assay: Effect of transfected PTB domain of X11α on ApoE-induced Aβ production; format: cell-based, mouse; settings: PTB expression in N2a-APPsw cells, 0.4 μg vector per well (FIG. 9B)
Experimental: as §1

ApoER2 = molecular target: T1, ApoER2; assay: GST pull-down of ApoER2 by X11α domains; format: binding, murine; settings: GST fusions of X11α domains, Western blot (FIG. 8A)
Excerpt: cDNA vectors. Vectors for human β-secretase and Swedish mutant of APP were previously described (Lin et al., 2000). Vectors for human X11α, X11β, human LRP, and murine ApoER2 were kindly provided by Dr. Chistopher C J Miller (Kings College London, UK), Dr. Ben Margolis (University of Michigan), Dr. Guojun Bu (Washington University), and Dr. Johannes Nimpf (University of Vienna, Austria) respectively. PCR was used for transferring murine ApoER2 gene into pcDNA6 with V5-His-Tag at the C-terminus and for creating mutants of murine ApoER2 in pcDNA6. PTB domain of X11α (residue 457-751) were amplified by PCR and inserted into pcDNA6. GST constructs of GST-PTB (457-751), GST-PDZ (650-837) of X11α and GST constructs of ApoER2 cytosolic domain GST-ApoC1 (881-996), GST-ApoC2 (881-925), GST-ApoC3 (926-996) and GST-APPc (650-695) were amplified by PCR and inserted into plasmid pGEX6.1 (Pharmacia). All constructs were verified by sequencing. GST fusion proteins were produced in Escherichia coli BL21 strain and purified as described previously (He et al., 2003).
Pull-down assays. For GST pull down, GST fusion proteins were retrieved as previously described (He et al., 2003). The amount of protein recovered with glutathione beads was determined using Bio-Rad Protein Assay and diluted to yield a concentration of 1 mg protein/mL of beads. […]

Sequence of LDL (low-density lipoprotein) lipid receptor (P01130 22-860): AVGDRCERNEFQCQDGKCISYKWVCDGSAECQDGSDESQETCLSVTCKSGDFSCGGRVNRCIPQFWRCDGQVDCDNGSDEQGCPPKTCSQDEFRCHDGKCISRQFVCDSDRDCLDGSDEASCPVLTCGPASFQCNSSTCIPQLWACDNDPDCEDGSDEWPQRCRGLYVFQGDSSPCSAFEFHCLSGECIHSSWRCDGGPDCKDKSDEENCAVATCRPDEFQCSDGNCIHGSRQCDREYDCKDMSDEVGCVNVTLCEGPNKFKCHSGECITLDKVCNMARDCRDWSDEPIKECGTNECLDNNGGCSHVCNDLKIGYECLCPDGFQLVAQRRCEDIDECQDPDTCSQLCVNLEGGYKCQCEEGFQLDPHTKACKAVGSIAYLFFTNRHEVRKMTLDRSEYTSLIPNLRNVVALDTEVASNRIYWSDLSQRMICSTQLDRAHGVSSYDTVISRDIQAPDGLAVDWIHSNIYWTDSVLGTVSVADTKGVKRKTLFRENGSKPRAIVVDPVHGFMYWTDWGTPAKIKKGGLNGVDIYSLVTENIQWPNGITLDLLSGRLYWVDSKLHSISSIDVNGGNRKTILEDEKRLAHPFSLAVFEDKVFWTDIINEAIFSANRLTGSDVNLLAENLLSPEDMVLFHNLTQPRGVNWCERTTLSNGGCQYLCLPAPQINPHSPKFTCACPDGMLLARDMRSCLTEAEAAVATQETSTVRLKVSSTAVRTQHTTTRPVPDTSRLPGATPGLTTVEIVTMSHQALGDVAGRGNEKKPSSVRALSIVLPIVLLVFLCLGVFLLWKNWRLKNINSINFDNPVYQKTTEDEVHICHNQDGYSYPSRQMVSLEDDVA

Row | pull down of ApoER2 from the cell lysate (ApoER2) | Molecule | Aβ40 increase in cells transfected with ApoER2 versus blank vectors (N2a-APPsw cells [1]) | Aβ40 levels in medium (N2a-APPsw cells [1]) | Aβ production (N2a-APPsw cells [1]) | Aβ production in cells transfected with ApoER2 versus without (N2a-APPsw cells [2]) | Aβ40 and Aβ42 production, ApoE4 in native human VLDL versus ApoE2 and ApoE3 (N2a-APPsw cells [2]; VLDL from individual human plasma, N2a-APPsw cells (FIG. 5C)) | Aβ production (N2a-APPsw cells [2]; recombinant ApoE forms at 10 μg/ml, N2a-APPsw cells (FIG. 5B)) | APP ectodomain generated by ∝-secretase, s∝-APP [3] | normal receptor binding activity [4] [%] | total amounts of ApoER2, APP and β-secretase in the cell lysates [5] | decrease of remaining cell-surface β-secretase [5] [%] | increase of intracellular APP [5] | increase of intracellular ApoER2 [5] | increase of intracellular β-secretase [5] | intracellular APP C-terminal fragment C99 [5] | ApoE4-induced Aβ increase (endogenous X11α/β)
1 |  | ApoE4: ApoE isoform with arginine substituted for cysteine at residue 112; from Biodesign / Alpha Diagnostic | increase of Aβ40 at a greater extent | increased over that in the control cells | increased Aβ production | produced more Aβ | stimulates higher Aβ production | increased Aβ production (FIG. 5B) with the highest response | reduction | 100 | remained about the same | ~35 | ~4 fold | small increases | small increases | significantly increased | 
2 |  | ApoE: purified human apolipoprotein E, purchased from Biodesign / Alpha Diagnostic | increase of Aβ40 at a greater extent | increased over that in the control cells | increased Aβ production | produced more Aβ |  |  | reduction |  | remained about the same | ~7 | about 2.5 fold | small increases | small increases | significantly increased | 
3 | pull down ApoER2 | B1 |  |  |  |  |  |  |  |  |  |  |  |  |  |  | largely abolished
